Data set [1] addresses T1, serotonin transporter (Homo sapiens, UniProt P31645). Put plainly: Functional activity, serotonin uptake inhibition in human HEK-293 cell lines. Format: cell-based. Further details: expressed in transfected cells; host or cells: HEK-293.
The target in data set [2] is T1, serotonin transporter. Put plainly: 5-HT uptake: displacement of serotonin ligands in vitro (methods of Gu et al.). It is filed as binding.
Data set [3] concerns the target DAT (Homo sapiens, UniProt Q01959). Put plainly: cell-based. Also noted: expressed in transfected cells. As to conditions: hDAT cell line; read-out: DA Uptake, Functional Assays (antagonism, EC50).
The target of data set [4] is dopamine transporter (Homo sapiens, UniProt Q01959). Put plainly: DA uptake: displacement of dopamine ligands in vitro (methods of Gu et al.).
Data set [5] addresses T2, norepinephrine transporter (Homo sapiens, UniProt P23975). Put plainly: Functional activity, norephinephrine uptake inhibition in MDCK cell lines. Format: cell-based.
The target of data set [6] is T2, norepinephrine transporter. Put plainly: NE uptake: displacement of norephinephrine ligands in vitro (methods of Galli et al.). It is filed as binding.
For data set [7], the system named is rats. Put plainly: Behavioral despair assay in rats, 3 i.p. injections (Example 143). Format: in vivo, rat. The note with it: 30 mg/kg, 3 i.p. injections 24 h, 5 h and 1 h before test. An excerpt: The objective of this study was to assess the antidepressant effects of test compounds 124, 125, 126, and 127 in the behavioral despair assay in rats according to the methods described by Porsolt R. D., Anton G., Blavet N., Jalfre M., Behavioural despair in rats: a new model sensitive to antidepressant treatment, Eur. J. Pharmacol., 1978, 47, 379-391. The animals were preconditioned in a pretest session, where the rats were individually forced to swim inside a vertical plexiglass cylinder containing water maintained at 19-20° C. After 15 minutes in the water, they were allowed to dry for 15 minutes in a heated enclosure. Twenty four hours later, they were replaced in the cylinder and the total duration of immobility was measured during a 5 minute test (test session). The test compounds and vehicle were administered as a series of 3 intraperitoneal injections 24 h, 5 h and 1 h before the 5 minute test on the second day.
The results are expressed as the percentage of variation of the total duration of immobility calculated from the mean value of the vehicle-treated group (% variation=[(immobility duration of vehicle-immobility duration of test compound)/(immobility duration of vehicle)]×100%).

Data set [8] has as its system rat. Put plainly: Acute toxicity assessment, maximum tolerated dose i.v., rat. The note with it: rats, 5 mg/kg i.v. It is filed as in vivo. As for the experimental part: (§1) An in vivo evaluation was carried out to determine the maximum tolerated dose of numerous test compounds in two animal species (mouse and rat). The compounds were administered i.v. and the animals were then observed for 72 h. Compounds 114, 115, 113, 110, 124, 125, 129, and 130 were solubilized in 5% dextrose (w/v)/polyethylene glycol 400 (4:1 v/v). Compounds 126, 127, 131, and 132 were solubilized in 10% hydroxypropyl-β-cyclodextrin (w/v).

The subject of data set [9] is mouse. Put plainly: Acute toxicity assessment, maximum tolerated dose i.v., mouse. It is filed as in vivo. As to conditions: mice, 5 mg/kg i.v. How it is done:
as §1

[10] abbreviates: human HEK-293 cell lines, read-out: 5-HT Uptake, Functional Assays (antagonism, EC50).
Setting [11] is: displacement of serotonin ligands in vitro, read-out: 5-HT Uptake, Uptake Profile (IC50).
Where [12] appears, read: DA Uptake, Uptake Profile (IC50, nM), displacement of dopamine ligands in vitro.
[13] abbreviates: NE Uptake, Uptake Profile (IC50, nM).
Where [14] appears, read: read-out: NE Uptake, Uptake Profile (IC50).
The mark [15] stands for this setting: 5-HT Uptake, Uptake Profile (IC50, nM).

Where two headings read alike, the source gives them in different places.

Chain of dopamine transporter (Q01959 whole entry): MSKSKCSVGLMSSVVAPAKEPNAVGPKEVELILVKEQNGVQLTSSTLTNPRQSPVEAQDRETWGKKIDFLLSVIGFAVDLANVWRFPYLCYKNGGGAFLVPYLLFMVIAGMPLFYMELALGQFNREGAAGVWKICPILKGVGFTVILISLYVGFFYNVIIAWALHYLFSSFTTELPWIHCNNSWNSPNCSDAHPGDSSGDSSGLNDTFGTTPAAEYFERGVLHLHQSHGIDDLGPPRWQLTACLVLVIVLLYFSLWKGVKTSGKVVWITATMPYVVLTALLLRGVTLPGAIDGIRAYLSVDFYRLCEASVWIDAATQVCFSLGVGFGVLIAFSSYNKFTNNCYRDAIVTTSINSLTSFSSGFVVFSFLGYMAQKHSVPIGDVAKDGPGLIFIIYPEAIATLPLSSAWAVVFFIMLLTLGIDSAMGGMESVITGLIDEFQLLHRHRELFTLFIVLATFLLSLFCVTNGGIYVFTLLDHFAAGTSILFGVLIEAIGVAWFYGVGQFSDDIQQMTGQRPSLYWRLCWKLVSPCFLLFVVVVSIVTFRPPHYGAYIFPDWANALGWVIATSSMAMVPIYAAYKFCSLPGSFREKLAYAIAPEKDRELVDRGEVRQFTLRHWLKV
Chain of DAT (Q01959 whole entry): as above
T1 sequence (P31645 whole entry): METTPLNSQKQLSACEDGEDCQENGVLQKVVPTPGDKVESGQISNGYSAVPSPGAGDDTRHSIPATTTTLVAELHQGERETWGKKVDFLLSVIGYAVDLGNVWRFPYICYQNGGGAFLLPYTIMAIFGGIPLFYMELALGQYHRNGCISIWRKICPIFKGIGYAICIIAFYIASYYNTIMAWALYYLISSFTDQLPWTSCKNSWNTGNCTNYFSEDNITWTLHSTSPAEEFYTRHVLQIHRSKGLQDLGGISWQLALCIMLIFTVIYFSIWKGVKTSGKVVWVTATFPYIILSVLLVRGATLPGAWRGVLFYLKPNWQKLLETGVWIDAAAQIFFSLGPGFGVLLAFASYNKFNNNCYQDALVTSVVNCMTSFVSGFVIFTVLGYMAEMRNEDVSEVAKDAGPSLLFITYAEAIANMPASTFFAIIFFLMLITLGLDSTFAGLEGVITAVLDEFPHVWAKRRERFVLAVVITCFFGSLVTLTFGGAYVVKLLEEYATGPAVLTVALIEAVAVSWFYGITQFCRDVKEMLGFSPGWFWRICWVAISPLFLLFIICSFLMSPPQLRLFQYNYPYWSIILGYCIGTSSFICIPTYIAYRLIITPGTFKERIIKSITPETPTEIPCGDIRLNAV
T2 sequence (P23975 whole entry): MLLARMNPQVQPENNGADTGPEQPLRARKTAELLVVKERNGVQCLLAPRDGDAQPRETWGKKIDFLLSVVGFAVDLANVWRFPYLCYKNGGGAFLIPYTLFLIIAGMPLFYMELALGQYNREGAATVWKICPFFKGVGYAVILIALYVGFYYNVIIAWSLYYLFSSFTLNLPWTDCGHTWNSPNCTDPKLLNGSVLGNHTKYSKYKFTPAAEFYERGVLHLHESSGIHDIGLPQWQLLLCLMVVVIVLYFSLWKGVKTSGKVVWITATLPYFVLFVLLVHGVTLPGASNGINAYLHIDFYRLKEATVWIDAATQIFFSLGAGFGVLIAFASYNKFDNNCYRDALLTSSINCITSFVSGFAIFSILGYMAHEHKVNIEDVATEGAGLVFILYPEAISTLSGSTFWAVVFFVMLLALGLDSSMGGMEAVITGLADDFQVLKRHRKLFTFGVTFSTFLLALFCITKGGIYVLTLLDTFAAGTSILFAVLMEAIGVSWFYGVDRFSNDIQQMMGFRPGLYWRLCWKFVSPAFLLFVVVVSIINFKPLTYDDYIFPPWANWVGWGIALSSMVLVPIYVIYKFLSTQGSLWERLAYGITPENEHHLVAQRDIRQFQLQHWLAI

As for `Clc1ccc(C2(CN3CCC[C@@H](CNc4ccccc4)C3)CCC2)cc1` [compound 28, {1-[1-(4-Chloro-phenyl)-cyclobutylmethyl]-piperidin-3-R-ylmethyl}-phenyl-amine], the EC50 in data set [1] (setting [10]) was less than 1000 nM; in data set [3], less than 100 nM; in [5], less than 1000 nM. For the same compound, the IC50 in data set [2] (setting [11]), in data set [4] (setting [12]) and in data set [6] (setting [13]) was less than 1000 nM each time.

As to `CN(C)CCCN1c2ccccc2CCc2ccccc21` [Imipramine], the “% variation of the total duration of immobility” value in [7] was 55%.

Turning to `OC(CN1CCCC(COc2ccc(C(F)(F)F)cc2)C1)C1(c2ccccc2OC(F)(F)F)CCC1` (single isomer, unassigned) [compound 224, 1-[1-(2-Trifluoromethoxy-phenyl)-cyclobutyl]-2-[3-(4-trifluoromethyl-phenoxymethyl)-piperidin-1-yl]-ethanol], the EC50 in [1] (setting [10]) is less than 1000 nM; in data set [3], greater than 1000 nM; in data set [5], greater than 1000 nM. Further, the IC50 in data set [2] (setting [11]), in data set [4] (setting [12]) and in data set [6] (setting [14]) was greater than 1000 nM throughout.

For the compound `CC(Oc1ccc(C(F)(F)F)cc1)C1CCCN(CC2(c3ccc(Cl)cc3)CCC2)C1` (stereo not shown) [compound 99, 1-[1-(4-chloro-phenyl)-cyclobutylmethyl]-3-[1-(4-trifluoromethyl-phenoxy)-ethyl]-piperidine], the EC50 is greater than 1000 nM in [1] (setting [10]), less than 10 nM in [3] and less than 1000 nM in [5]. Further, the figures for the IC50 in [2] (setting [11]), in data set [4] (setting [12]) and in [6] (setting [13]) were less than 1000 nM, less than 100 nM and less than 1000 nM, respectively.

For `FC(F)(F)c1ccc(OCC2CCCN(CC3(c4ccc(Cl)cc4)CCC3)C2)cc1` (stereo not shown) [compound 7], the figures for the IC50 in data set [2] (setting [15]), in data set [4] (setting [12]) and in data set [6] (setting [13]) were greater than 1000 nM, less than 100 nM and greater than 1000 nM, respectively. Moreover, the EC50 in [3] was less than 100 nM.

In the case of `OC(CN1CCC[C@@H](CCc2ccccc2)C1)c1ccc(Cl)cc1` (stereo partly shown) [compound 233], the EC50 in [1] (setting [10]), in data set [3] and in data set [5] was less than 10 nM each time. Besides, the figures for the concentration for half-maximal inhibition (IC50) in data set [2] (setting [11]), in data set [4] (setting [12]) and in data set [6] (setting [13]) were less than 10 nM, less than 10 nM and less than 100 nM, respectively.

For `OC(CN1CCCC(CCc2ccccc2)C1)c1ccc(Cl)cc1` (single isomer, unassigned) [compound 144, 1-(4-Chloro-phenyl)-2-(3-phenethyl-piperidin-1-yl)-ethanol], the IC50 in data set [2] (setting [11]) is less than 10 nM; in data set [4] (setting [12]), less than 10 nM; in data set [6] (setting [13]), less than 100 nM. Moreover, the “tolerability and mortality after 72 h” value in [8] and in [9] was “tolerated” throughout.

As for `OCC1CCCN(CC2(c3ccc(Cl)cc3)CCC2)C1` (stereo not shown) [compound 2], the IC50 is greater than 1000 nM in data set [2] (setting [15]), less than 1000 nM in data set [4] (setting [12]) and greater than 1000 nM in [6] (setting [13]). Also, in data set [3], the EC50 was less than 100 nM.

For `FC(F)(F)c1ccc(OCC2CN(CC3(c4ccc(Cl)cc4)CCC3)CCO2)cc1` (stereo not shown) [compound 102], the EC50 is greater than 1000 nM in data set [1] (5-HT Uptake, Functional Assays (antagonism, EC50, nM)); less than 10 nM in data set [3]; less than 10 nM in data set [5]. The figures for the IC50 in data set [2] (setting [15]), in data set [4] (setting [12]) and in [6] (setting [13]) were greater than 1000 nM, less than 100 nM and greater than 1000 nM, respectively.

Regarding `Clc1ccc(C2(CN3CCCC(COc4ccc5c(c4)OCO5)C3)CCC2)cc1` (stereo not shown) [compound 83], the EC50 in data set [1] (setting [10]) was less than 100 nM; in data set [3] it was less than 10 nM; in data set [5], less than 1000 nM. Also, the IC50 in data set [2] (setting [11]) was less than 1000 nM; in [4] (setting [12]) it was less than 100 nM; in data set [6] (setting [13]), less than 1000 nM.

On to `Fc1ccc(OCC2CCCN(CC3(c4ccc(Cl)cc4)CCC3)C2)cc1` (stereo not shown) [compound 86, 1-[1-(4-Chloro-phenyl)-cyclobutylmethyl]-3-(4-fluoro-phenoxmethyl)-piperidine], for which the values for the EC50 in data set [1] (setting [10]), in data set [3] and in data set [5] were less than 1000 nM, less than 10 nM and less than 1000 nM, respectively. The IC50 in [2] (setting [11]) is less than 1000 nM; in [4] (setting [12]) it was less than 100 nM; in data set [6] (setting [13]), less than 1000 nM.

For the compound `OC(CN1CCCC(COc2ccc(C(F)(F)F)cc2)C1)C1(c2ccccc2OC(F)(F)F)CCC1` (single isomer, unassigned) [compound 225, 1-[1-(2-Trifluoromethoxy-phenyl)-cyclobutyl]-2-[3-(4-trifluoromethyl-phenoxymethyl)-piperidin-1-yl]-ethanol], the EC50 was greater than 1000 nM in [1] (setting [10]); greater than 1000 nM in [3]; greater than 1000 nM in [5] (read-out: NE Uptake, Functional Assays (antagonism, EC50), MDCK cell lines). The results for the IC50 in [2] (setting [11]), in data set [4] (setting [12]) and in data set [6] (setting [14]) were less than 1000 nM, less than 10 nM and greater than 1000 nM, respectively.

On to `OC[C@H]1[C@@H](COc2ccc(C(F)(F)F)cc2)CCCN1CC1(c2ccc(Cl)cc2)CCC1` (racemic) [compound 82, cis-[1-[1-(4-chloro-phenyl)-cyclobutylmethyl]-3-(4-trifluoromethyl-phenoxymethyl)-piperidin-2-yl]-methanol], for which the IC50 is less than 1000 nM in [2] (setting [11]), less than 100 nM in data set [4] (setting [12]) and less than 1000 nM in data set [6] (setting [13]). Further, the EC50 in data set [3] was less than 100 nM; in [5] it was less than 1000 nM.

`O=C(CN1CCC[C@H](COc2ccc(C(F)(F)F)cc2)C1)C1(c2ccc(Cl)cc2)CCC1` [compound 123, S-1-[1-(4-Chloro-phenyl)-cyclobutyl]-2-[3-(4-trifluoromethyl-phenoxymethyl)-piperidin-1-yl]-ethanone]: the EC50 in data set [1] (setting [10]) is less than 1000 nM; in data set [3], less than 10 nM; in [5] it was less than 1000 nM. Further, the figures for the IC50 in data set [2] (setting [11]), in data set [4] (setting [12]) and in [6] (setting [13]) were less than 1000 nM, less than 10 nM and less than 1000 nM, respectively.

Regarding `FC(F)(F)c1ccc(CCC2CCCN(CC3(c4ccccc4)CCC3)C2)cc1` (stereo not shown) [compound 93, 1-(1-phenyl-cyclobutylmethyl]-3-[2-(4-trifluoromethyl-phenyl)-ethyl]-piperidine], the IC50 was less than 1000 nM in data set [2] (setting [11]), greater than 1000 nM in [4] and greater than 1000 nM in data set [6] (setting [14]).

Consider `OC(CN1CCCC(CCc2ccc(C(F)(F)F)cc2)C1)c1ccc(Cl)cc1` (single isomer, unassigned) [compound 153, 1-(4-Chloro-phenyl)-2-{3-[2-(4-trifluoromethyl-phenyl)-ethyl]-piperidin-1-yl}-ethanol], for which the IC50 in data set [2] (setting [11]) was less than 10 nM; in data set [4] (setting [12]), less than 100 nM; in [6] (setting [13]), less than 100 nM.

Turning to `NCC1CCCN(CC2(c3ccc(Cl)cc3)CCC2)C1` (stereo not shown) [compound 230, C-{1-[1-(4-Chloro-phenyl)-cyclobutylmethyl]-piperidin-3-yl}-methylamine], the IC50 is greater than 1000 nM in [2] (setting [11]), less than 100 nM in [4] (setting [12]) and greater than 1000 nM in [6] (setting [14]).

Take `OC(CN1CCCC(CCc2ccc(C(F)(F)F)cc2)C1)C1(c2ccc(Cl)cc2)CCC1` (single isomer, unassigned) [compound 194, 1-[1-(4-Chloro-phenyl)-cyclobutyl]-2-{3-[2-(4-trifluoromethyl-phenyl)-ethyl]-piperidin-1-yl}-ethanol]: the IC50 in data set [2] (setting [11]) was less than 1000 nM; in [4] (setting [12]) it was less than 10 nM; in data set [6] (setting [13]), less than 100 nM.

`CC(C)(CN1CCC[C@@H](COc2ccc(C(F)(F)F)cc2)C1)c1ccc(Cl)cc1` [compound 122]: the IC50 was greater than 1000 nM in [2] (setting [11]); less than 1000 nM in data set [4] (read-out: DA Uptake, Uptake Profile (IC50), displacement of dopamine ligands in vitro); greater than 1000 nM in data set [6] (setting [14]).

For the compound `O=C(CN1CCC[C@@H](COc2ccc(C(F)(F)F)cc2)C1)C1(c2ccc(Cl)cc2)CCC1` [compound 128, S-1-[1-(4-Chloro-phenyl)-cyclobutyl]-2-[3-(4-trifluoromethyl-phenoxymethyl)-piperidin-1-yl]-ethanone], the results for the EC50 in [1] (setting [10]), in data set [3] and in [5] were less than 1000 nM, less than 10 nM and less than 1000 nM, respectively. Also, the IC50 in data set [2] (setting [11]) is less than 1000 nM; in [4] (setting [12]), less than 100 nM; in data set [6] (setting [13]), less than 1000 nM.

The record behind these values is patent publication US7294637B2 (Sepracor, Inc., priority 2000, dated 2007).
